From ChEMBL document CHEMBL1150901, “Enhancement of NO production in activated macrophages in vivo by an antimalarial crude drug, Dichroa febrifuga” (J Nat Prod, 1998)
Calls of active or inactive are those of the source. The rule behind the calls is not given here.

Columns and labels:
Macrophage [1] = assay: […] of LPS-induced NO production in BCG-treated ICR mouse macrophages at 1 mg/kg/day, po administered for 3 days before BCG immunization measured after 24 hrs of LPS challenge by Griess reagent method; format: functional; set-up: scale not given: the % may be the effect or the level left
[2] = Activation of LPS-induced NO production in BCG-treated ICR mouse macrophages at 1 mg/kg/day, po administered for 3 days before BCG immunization measured after 72 hrs of LPS challenge by Griess reagent method; format: functional, organism-based; settings: Macrophage
[3] = Activation of LPS-induced NO production in BCG-treated ICR mouse macrophages at 50 to 1000 mg/kg/day, po administered for 3 days before BCG immunization measured after 24 hrs of LPS challenge by Griess reagent method; format: functional, organism-based; settings: Macrophage
Macrophage [4] = assay: Activation of NO production in BCG-treated ICR mouse macrophages at 1 mg/kg/day, po administered for 3 days before BCG immunization measured after 72 hrs of LPS challenge by Griess reagent method; format: functional, organism-based
Macrophage [5] = assay: Increase in LPS-induced NO production in ICR mouse at 1 mg/kg/day, po 0 to 2 days administered after BCG immunization measured after 24 hrs of LPS challenge by Griess reagent method; format: functional, organism-based
[6] = Activation of LPS-induced NO production in BCG-treated ICR mouse macrophages at 5 mg/kg/day, po administered for 3 days before BCG immunization measured after 24 hrs of LPS challenge by Griess reagent method; format: functional, organism-based; settings: Macrophage
Macrophage [7] = assay: Increase in LPS-induced NO production in ICR mouse at 1 mg/kg/day, po 0 to 2 days administered before BCG immunization measured after 24 hrs of LPS challenge by Griess reagent method; format: functional, organism-based
[8] = Cytotoxicity against ICR mouse macrophages assessed as cell viability at 1 mg/kg/day after 72 hrs by MTT assay; format: organism-based, Macrophage; settings: read-out: Activity
[9] = Cytotoxicity against LPS-stimulated ICR mouse macrophages assessed as cell viability at 1 mg/kg/day after 72 hrs of LPS challenge by MTT assay; format: organism-based, Macrophage; settings: read-out: Activity
Mus musculus [10] = assay: Antiinflammatory activity against po dosed ICR mouse assessed as number of peritoneal exudate cells; format: functional
Mus musculus [11] = assay: Toxicity in ICR mouse assessed as occurrence of diarrhea at 5 mg/kg/day, po; format: organism-based; set-up: route oral; settings: in vivo

SMILES	Activity (Macrophage [1])	Activity [2]	Activity [3]	Activity (Macrophage [4])	Activity (Macrophage [5])	Activity [6]	Activity (Macrophage [7])	viability at 72 h [8]	viability at 72 h [9]	Activity (Mus musculus [10])	Activity (Mus musculus [11])
C[C@@H]1CC[C@H]2[C@@H](C)C(=O)O[C@@H]3O[C@@]4(C)CC[C@@H]1[C@]32OO4 [ARTEMISININ]	23%	–	–	–	–	–	–	–	–	–	–
O=C(C[C@@H]1NCCC[C@H]1O)Cn1cnc2ccccc2c1=O [FEBRIFUGINE]	–	Active	Dose-dependent effect	inactive	Active	inactive	Active	> 90%	10%	378000000	Not Active
